The supplement of paper PMC10307832

Legend:
Assay in all cases: relative viability (nuclei count vs DMSO), 5 days (fraction); higher = more cells survive
A549 = system: A549
In short: (§1)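 Lung cancer cell lines in 1536-well plates got either a single drug or a fixed anchor-drug dose together with five library-drug doses (not always all listed) in √10 steps, by pin tool, on the day after seeding. Nuclei were counted after 5 days, and relative viability is the treated-to-vehicle ratio of nuclei counts. Values are medians of duplicate plates.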

Calu-6 = system: Calu-6
In short: as §1

EBC-1 = system: EBC-1
In short: as §1

HCC-15 = system: HCC-15
In short: as §1

IA-LM = system: IA-LM
In short: as §1

NCI-H1299 = system: NCI-H1299
In short: as §1

NCI-H1703 = system: NCI-H1703
In short: as §1

NCI-H1793 = system: NCI-H1793
In short: as §1

LCLC-103H = system: LCLC-103H
In short: as §1

NCI-H1563 = system: NCI-H1563
In short: as §1

NCI-H1623 = system: NCI-H1623
In short: as §1

Structure (SMILES): C=C1C(=O)O[C@@H](CCCCCCCC)[C@@H]1C(=O)O [C-75] + CC1(C)CCC(c2ccc(Cl)cc2)=C(CN2CCN(c3ccc(C(=O)NS(=O)(=O)c4ccc(N[C@H](CCN5CCOCC5)CSc5ccccc5)c(S(=O)(=O)C(F)(F)F)c4)cc3)CC2)C1 [Navitoclax] (partner 0.5 µM)
- relative viability (A549; first compound 0.08 µM): 1.12
- relative viability (A549; first compound 0.253 µM): 1.29
- relative viability (A549; first compound 0.8 µM): 1.18
- relative viability (A549; first compound 2.53 µM): 0.819
- relative viability (A549; first compound 8 µM): 1.15
- relative viability (Calu-6; first compound 0.08 µM): 0.819
- relative viability (Calu-6; first compound 0.253 µM): 0.864
- relative viability (Calu-6; first compound 0.8 µM): 0.786
- relative viability (Calu-6; first compound 2.53 µM): 0.738
- relative viability (Calu-6; first compound 8 µM): 0.714
- relative viability (EBC-1; first compound 0.08 µM): 0.389
- relative viability (EBC-1; first compound 0.253 µM): 0.508
- relative viability (EBC-1; first compound 0.8 µM): 0.306
- relative viability (EBC-1; first compound 2.53 µM): 0.356
- relative viability (EBC-1; first compound 8 µM): 0.219
- relative viability (HCC-15; first compound 0.08 µM): 0.692
- relative viability (HCC-15; first compound 0.253 µM): 0.725
- relative viability (HCC-15; first compound 0.8 µM): 0.686
- relative viability (HCC-15; first compound 2.53 µM): 0.59
- relative viability (HCC-15; first compound 8 µM): 0.733
- relative viability (IA-LM; first compound 0.08 µM): 0.754
- relative viability (IA-LM; first compound 0.253 µM): 0.834
- relative viability (IA-LM; first compound 0.8 µM): 0.819
- relative viability (IA-LM; first compound 2.53 µM): 0.52
- relative viability (IA-LM; first compound 8 µM): 0.512
- relative viability (NCI-H1299; first compound 0.08 µM): 1.07
- relative viability (NCI-H1299; first compound 0.253 µM): 1.03
- relative viability (NCI-H1299; first compound 0.8 µM): 1.05
- relative viability (NCI-H1299; first compound 2.53 µM): 1.03
- relative viability (NCI-H1299; first compound 8 µM): 1.12
- relative viability (NCI-H1703; first compound 0.08 µM): 1.15
- relative viability (NCI-H1703; first compound 0.253 µM): 1.12
- relative viability (NCI-H1703; first compound 0.8 µM): 0.817
- relative viability (NCI-H1703; first compound 2.53 µM): 1.09
- relative viability (NCI-H1703; first compound 8 µM): 0.967
- relative viability (NCI-H1793; first compound 0.08 µM): 0.494
- relative viability (NCI-H1793; first compound 0.253 µM): 0.564
- relative viability (NCI-H1793; first compound 0.8 µM): 0.313
- relative viability (NCI-H1793; first compound 2.53 µM): 0.308
- relative viability (NCI-H1793; first compound 8 µM): 0.29

Structure (SMILES): C=C1C(=O)O[C@@H](CCCCCCCC)[C@@H]1C(=O)O [C-75] + CC(=O)Nc1cccc(-n2c(=O)n(C3CC3)c(=O)c3c(Nc4ccc(I)cc4F)n(C)c(=O)c(C)c32)c1 [Trametinib] (partner 0.02 µM)
- relative viability (HCC-15; first compound 0.08 µM): 0.387
- relative viability (HCC-15; first compound 0.253 µM): 0.366
- relative viability (HCC-15; first compound 0.8 µM): 0.375
- relative viability (HCC-15; first compound 2.53 µM): 0.33
- relative viability (HCC-15; first compound 8 µM): 0.426
- relative viability (LCLC-103H; first compound 0.08 µM): 0.64
- relative viability (LCLC-103H; first compound 0.253 µM): 0.703
- relative viability (LCLC-103H; first compound 0.8 µM): 0.624
- relative viability (LCLC-103H; first compound 2.53 µM): 0.547
- relative viability (LCLC-103H; first compound 8 µM): 0.721
- relative viability (NCI-H1793; first compound 0.08 µM): 0.356
- relative viability (NCI-H1793; first compound 0.253 µM): 0.509
- relative viability (NCI-H1793; first compound 2.53 µM): 0.356
- relative viability (NCI-H1793; first compound 8 µM): 0.409

Structure (SMILES): C=C1C(=O)O[C@@H](CCCCCCCC)[C@@H]1C(=O)O [C-75] + CC(=O)c1c(C)c2cnc(Nc3ccc(N4CCNCC4)cn3)nc2n(C2CCCC2)c1=O [Palbociclib] (partner 0.5 µM)
- relative viability (HCC-15; first compound 0.08 µM): 0.717
- relative viability (HCC-15; first compound 0.253 µM): 0.699
- relative viability (HCC-15; first compound 0.8 µM): 0.605
- relative viability (HCC-15; first compound 2.53 µM): 0.628
- relative viability (HCC-15; first compound 8 µM): 0.664
- relative viability (LCLC-103H; first compound 0.08 µM): 0.447
- relative viability (LCLC-103H; first compound 0.253 µM): 0.428
- relative viability (LCLC-103H; first compound 0.8 µM): 0.499
- relative viability (LCLC-103H; first compound 2.53 µM): 0.353
- relative viability (LCLC-103H; first compound 8 µM): 0.451
- relative viability (NCI-H1793; first compound 0.08 µM): 0.278
- relative viability (NCI-H1793; first compound 0.253 µM): 0.311
- relative viability (NCI-H1793; first compound 2.53 µM): 0.267
- relative viability (NCI-H1793; first compound 8 µM): 0.306

Structure (SMILES): C=C1C(=O)O[C@@H](CCCCCCCC)[C@@H]1C(=O)O [C-75] + Cc1nc(Nc2ncc(C(=O)Nc3c(C)cccc3Cl)s2)cc(N2CCN(CCO)CC2)n1 [Dasatinib] (partner 0.075 µM)
- relative viability (HCC-15; first compound 0.08 µM): 0.644
- relative viability (HCC-15; first compound 0.253 µM): 0.571
- relative viability (HCC-15; first compound 0.8 µM): 0.602
- relative viability (HCC-15; first compound 2.53 µM): 0.498
- relative viability (HCC-15; first compound 8 µM): 0.528
- relative viability (LCLC-103H; first compound 0.08 µM): 0.445
- relative viability (LCLC-103H; first compound 0.253 µM): 0.451
- relative viability (LCLC-103H; first compound 0.8 µM): 0.511
- relative viability (LCLC-103H; first compound 2.53 µM): 0.351
- relative viability (LCLC-103H; first compound 8 µM): 0.524
- relative viability (NCI-H1563; first compound 0.08 µM): 0.387
- relative viability (NCI-H1563; first compound 0.253 µM): 0.453
- relative viability (NCI-H1563; first compound 0.8 µM): 0.444
- relative viability (NCI-H1563; first compound 2.53 µM): 0.415
- relative viability (NCI-H1563; first compound 8 µM): 0.569
- relative viability (NCI-H1623; first compound 0.08 µM): 0.591
- relative viability (NCI-H1623; first compound 0.253 µM): 0.649
- relative viability (NCI-H1623; first compound 0.8 µM): 0.516
- relative viability (NCI-H1623; first compound 2.53 µM): 0.447
- relative viability (NCI-H1623; first compound 8 µM): 0.695
- relative viability (NCI-H1793; first compound 0.08 µM): 0.399
- relative viability (NCI-H1793; first compound 0.253 µM): 0.373
- relative viability (NCI-H1793; first compound 0.8 µM): 0.32
- relative viability (NCI-H1793; first compound 2.53 µM): 0.352
- relative viability (NCI-H1793; first compound 8 µM): 0.373

Structure (SMILES): C=C1C(=O)O[C@@H](CCCCCCCC)[C@@H]1C(=O)O [C-75] + NC(=O)Nc1cc(-c2cccc(F)c2)sc1C(=O)N[C@H]1CCCNC1 [AZD7762] (partner 0.2 µM)
- relative viability (HCC-15; first compound 0.08 µM): 1.37
- relative viability (HCC-15; first compound 0.253 µM): 1.39
- relative viability (HCC-15; first compound 0.8 µM): 1.2
- relative viability (HCC-15; first compound 2.53 µM): 0.78
- relative viability (HCC-15; first compound 8 µM): 1.22
- relative viability (LCLC-103H; first compound 0.08 µM): 0.809
- relative viability (LCLC-103H; first compound 0.253 µM): 0.619
- relative viability (LCLC-103H; first compound 0.8 µM): 0.695
- relative viability (LCLC-103H; first compound 2.53 µM): 0.654
- relative viability (LCLC-103H; first compound 8 µM): 0.814
- relative viability (NCI-H1703; first compound 0.08 µM): 0.125
- relative viability (NCI-H1703; first compound 0.253 µM): 0.126
- relative viability (NCI-H1703; first compound 0.8 µM): 0.115
- relative viability (NCI-H1703; first compound 8 µM): 0.149
- relative viability (NCI-H1793; first compound 0.08 µM): 0.478
- relative viability (NCI-H1793; first compound 0.253 µM): 0.645
- relative viability (NCI-H1793; first compound 2.53 µM): 0.293
- relative viability (NCI-H1793; first compound 8 µM): 0.854
